# From PMC8453901, “GLPG1205, a GPR84 Modulator: Safety, Pharmacokinetics, and Pharmacodynamics in Healthy Subjects” (Clinical Pharmacology in Drug Development, 2021)
# Where two headings read alike, the source gives them in different places.
# Assays:
# [1] = set-up: method as in PMID 32902984; conditions: mouse, rat, and dog; cited from earlier work
# [2] = Study 1 SAD part: plasma pharmacokinetics after single oral doses; type: in vivo, human; conditions: for half-life / Tmax / Cmax / AUC(0-inf) / AUC / concentration at 24 h: male, human, plasma, oral; for AUC: read-out: AUC0‐24h; for concentration at 24 h: read-out: C24h
# Protocol: GLPG1205 or matching placebo were administered as an oral nanosuspension in the morning in a fed condition as an outpatient. For both the single ascending doses (SADs) and multiple ascending doses (MADs) parts of the study, subjects attended a screening visit (21 to 2 days before first study drug administration) and a follow‐up visit (7 to 10 days after the last dose).
# The SAD part of the study comprised 16 healthy male subjects in 2 alternating cohorts (A and B, n = 8 each). Cohort A received GLPG1205 10, 90, 400, and 800 mg or matching placebo, and cohort B received GLPG1205 30, 200, and 600 mg or matching placebo. Subjects were randomly assigned to receive GLPG1205 or matching placebo in a 3:1 ratio once at the beginning of the study. In addition, subjects in cohorts A and B were randomized to a treatment sequence. […] An interval of at least 3 days was enforced between 2 dose levels (between cohort A and B). Subjects were kept in‐house from the evening of day –1 to ≈26 hours after dosing (morning of day 2).
# In the SAD part of study 1, blood samples (2 mL) for PK assessments were obtained before dosing and at multiple time points on the day of study drug administration (before dosing and 0.5, 1, 2, 4, 6, 8, and 12 hours after dosing) and at 24, 48, and 72 hours after dosing. The predose sample for the next dose level was also used in PK analysis (168 hours after dosing). […] In the MAD part of study 1, blood samples (2 mL) were obtained on days 1, 2, 4, 5, 6, 8, 10, 12, 14, 15, 16, 17, and 18 and at follow‐up (approximately 7 to 10 days after the last dose). These PK blood samples were taken after dosing (1, 2, 4, 6, 8, 12, and 24 hours) on day 1; before dosing on days 4, 6, 8, and 10; and after dosing (1, 2, 4, 6, 8, 12, 24, 72, and 96 hours) on day 14. The following additional PK blood samples were also taken: cohort C, before dosing on day 5; and cohorts D and E, before dosing on day 12. Urine samples were obtained from fractions collected over 6‐ or 12‐hour periods after dosing on days –1, 1, 2, 13, 14, and 15; samples obtained on days –1 and 13 were for cytochrome P450 (CYP) induction analysis only. In study 2, blood samples (2 mL) were obtained on days 1, 2, 5, 7, 10, 14, 15, 17, and 20 and at follow‐up (approximately 21 days after end of study medication administration). Blood samples were taken before dosing and at 1, 2, 4, 6, 8, 12, and 24 hours after drug administration on days 1 and 14 and before dosing on other sampling days.
# Blood samples were immediately chilled (ice bath), and the plasma was separated by centrifugation (4°C for 10 minutes at ≈1500 g) within 30 minutes of blood collection.
# GLPG1205 plasma concentrations were determined using a validated liquid chromatography with tandem mass spectrometry method. After a protein precipitation with methanol, a chromatographic separation was performed on a Kinetex C18 column (50×3.0 mm, 2.6 μm; Phenomenex, Torrance, California) set at 40°C by using a Nexera high‐performance liquid chromatography (HPLC) system (Shimadzu, Kyoto, Japan) or an Infinity HPLC system (Agilent Technologies, Diegem, Belgium) in isocratic elution mode. A QTRAP6500, QTRAP4000, or API4000 mass spectrometer (AB Sciex, Nieuwerkerk aan den Ijssel, The Netherlands) equipped with a TurboIonSpray probe operated in the multiple reaction monitoring in positive mode was used for quantification. The calibration curves in plasma were linear over the range of 1 to 1000 ng/mL with 1/x^2 as weighting factor. The limit of quantification of the assay in the plasma samples was set at 1 ng/mL.
# PK calculations were performed using Phoenix WinNonlin 6.2 (Pharsight Corporation, Palo Alto, California). […] AUC0‐inf was calculated from the area under the plasma concentration‐time curve from time 0 until the time corresponding with the last observed quantifiable concentration + Ct/λz, where Ct was the last observed quantifiable concentration and λz the first‐order terminal rate constant. […]
# [3] = single 10 mg, arithmetic mean (CV%)
# [4] = single 30 mg, arithmetic mean (CV%)
# [5] = single 90 mg, arithmetic mean (CV%)
# [6] = single 200 mg, arithmetic mean (CV%)
# [7] = single 400 mg, arithmetic mean (CV%)
# [8] = single 600 mg, arithmetic mean (CV%)
# [9] = single 800 mg, arithmetic mean (CV%)
compound,measurement,setting,value
"O=c1nc(OC[C@@H]2COCCO2)cc2n1CCc1cc(C#CC3CC3)ccc1-2 [GLPG1205, 9‐cyclopropylethynyl‐2‐((S)‐1‐[1,4]dioxan‐2‐ylmethoxy)‐6,7‐dihydropyrimido[6,1‐a]isoquinolin‐4‐one]",oral absolute exposure,[1],≥ 68%
same,half-life,"[2]; after single administration, 10 to 800 mg, read-out: arithmetic mean apparent terminal half-life (t1/2,λz) range",30.1 to 140 h
same,Tmax,"[2]; after single administration, 10 to 800 mg, read-out: median tmax range",2 to 4 h
same,Cmax,[2]; [3],94.2 ng/mL
same,AUC(0-inf),"[2]; single 10 mg, arithmetic mean (CV%), N = 3",3310 ng·h/mL
same,AUC,[2]; [3],1330 ng·h/mL
same,concentration at 24 h,[2]; [3],39.8 ng/mL
same,half-life,"[2]; single 10 mg, arithmetic mean (CV%), read-out: t1/2,λz (converted)",32.2 h
same,Cmax,[2]; [4],284 ng/mL
same,AUC(0-inf),"[2]; single 30 mg, arithmetic mean (CV%), N = 4",11500 ng·h/mL
same,half-life,"[2]; single 30 mg, arithmetic mean (CV%), N = 5, read-out: t1/2,λz (converted)",30.1 h
same,AUC,[2]; [4],4470 ng·h/mL
same,concentration at 24 h,[2]; [4],144 ng/mL
same,Tmax,"[2]; single 30 mg, median (minimum-maximum), read-out: tmax",4 h
same,Cmax,[2]; [5],890 ng/mL
same,AUC(0-inf),"[2]; single 90 mg, arithmetic mean (CV%), N = 4",52300 ng·h/mL
same,AUC,[2]; [5],14300 ng·h/mL
same,concentration at 24 h,[2]; [5],511 ng/mL
same,half-life,"[2]; single 90 mg, arithmetic mean (CV%), read-out: t1/2,λz (converted)",57.7 h
same,Tmax,"[2]; single 90 mg, median (minimum-maximum), read-out: tmax",4 h
same,Cmax,[2]; [6],2200 ng/mL
same,AUC(0-inf),"[2]; single 200 mg, arithmetic mean (CV%), N = 4",120000 ng·h/mL
same,half-life,"[2]; single 200 mg, arithmetic mean (CV%), N = 5, read-out: t1/2,λz (converted)",54.3 h
same,AUC,[2]; [6],35800 ng·h/mL
same,concentration at 24 h,[2]; [6],1260 ng/mL
same,Tmax,"[2]; single 200 mg, median (minimum-maximum), read-out: tmax",3 h
same,Cmax,[2]; [7],3390 ng/mL
same,AUC,[2]; [7],58000 ng·h/mL
same,concentration at 24 h,[2]; [7],2150 ng/mL
same,half-life,"[2]; single 400 mg, arithmetic mean (CV%), read-out: t1/2,λz (converted)",92.4 h
same,AUC(0-inf),"[2]; single 400 mg, arithmetic mean, N = 2",224000 ng·h/mL
same,Tmax,"[2]; single 400 mg, median (minimum-maximum), read-out: tmax",4 h
same,Cmax,[2]; [8],5530 ng/mL
same,half-life,"[2]; single 600 mg, arithmetic mean (CV%), N = 3, read-out: t1/2,λz (converted)",75 h
same,AUC,[2]; [8],94000 ng·h/mL
same,concentration at 24 h,[2]; [8],3410 ng/mL
same,Tmax,"[2]; single 600 mg, median (minimum-maximum), read-out: tmax",4 h
same,Cmax,[2]; [9],7500 ng/mL
same,AUC,[2]; [9],130000 ng·h/mL
same,concentration at 24 h,[2]; [9],5000 ng/mL
same,half-life,"[2]; single 800 mg, arithmetic mean, N = 2, read-out: t1/2,λz (converted)",140 h
same,Tmax,"[2]; single 800 mg, median (minimum-maximum), read-out: tmax",4 h
same,dose-proportionality of exposure,[2]; single doses between 10 and 800 mg,did not markedly deviate from dose‐proportionality
